Earlier results in patent publication US20250214981A1, “COMPOUND AND APPLICATION THEREOF IN PREPARATION OF MEDICINE FOR TREATING ENTEROVIRUS-RELATED DISEASES” (priority 2022, published 2025).

Key:
[1] = in vivo
[2] = tested on: human rhinovirus serotypes
[3] = tested on: mammalian cysteine and serine proteases, including cathepsin B, elastase, chymotrypsin, trypsin, thrombin, and calpain

Compound: CCOC(=O)/C=C/[C@H](C[C@@H]1CCNC1=O)NC(=O)[C@@H](CC(=O)[C@@H](NC(=O)c1cc(C)on1)C(C)C)Cc1ccc(F)cc1 [AG7088]
- bioavailability [1]: low bioavailability
- antiviral activity against a variety of human rhinovirus serotypes [2]: significant antiviral activity
- inhibitory activity against mammalian cysteine and serine proteases [3]: negligible inhibitory activity
